Where a name gives a salt, the structure may show the parent alone.

Chain of recombinant human HPK1 (Q92918 whole entry): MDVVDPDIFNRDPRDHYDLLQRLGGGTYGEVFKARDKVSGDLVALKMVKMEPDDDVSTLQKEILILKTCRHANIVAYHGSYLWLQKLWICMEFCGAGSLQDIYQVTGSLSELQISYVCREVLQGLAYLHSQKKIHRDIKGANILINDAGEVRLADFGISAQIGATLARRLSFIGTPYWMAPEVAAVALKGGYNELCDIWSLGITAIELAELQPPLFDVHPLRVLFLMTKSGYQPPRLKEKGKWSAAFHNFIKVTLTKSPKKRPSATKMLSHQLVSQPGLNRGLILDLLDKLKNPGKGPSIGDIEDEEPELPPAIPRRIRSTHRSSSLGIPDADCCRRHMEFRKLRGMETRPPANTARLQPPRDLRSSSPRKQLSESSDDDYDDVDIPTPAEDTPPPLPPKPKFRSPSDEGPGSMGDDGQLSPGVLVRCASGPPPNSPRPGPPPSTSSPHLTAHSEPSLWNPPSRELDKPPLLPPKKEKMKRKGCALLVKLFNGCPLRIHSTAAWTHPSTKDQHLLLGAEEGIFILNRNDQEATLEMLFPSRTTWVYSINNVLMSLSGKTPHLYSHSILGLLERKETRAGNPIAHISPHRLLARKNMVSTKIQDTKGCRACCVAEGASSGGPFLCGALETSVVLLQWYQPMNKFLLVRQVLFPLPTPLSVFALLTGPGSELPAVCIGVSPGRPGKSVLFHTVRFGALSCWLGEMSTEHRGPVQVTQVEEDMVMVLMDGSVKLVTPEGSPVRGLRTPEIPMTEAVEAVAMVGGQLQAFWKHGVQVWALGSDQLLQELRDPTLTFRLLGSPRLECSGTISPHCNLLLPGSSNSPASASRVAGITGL

The experiment has as its target recombinant human HPK1 (Homo sapiens (Human), UniProt Q92918). Description: HPK1 kinase assay (ADP-Glo). The experiment is classed as biochemical. Conditions: 25 μM ATP, MBP substrate. The method, boiled down:
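Activity was read as ADP formed, detected by ADP-Glo luminescence after the reaction of 5 ng recombinant human HPK1 with MBP and ATP (stocks 0.5 μg/μl and 25 μM) for 40 min at 30 °C. Buffer was Tris pH 7.5 with MgCl2, BSA and DTT, with compound in 0.5% DMSO. IC50 came from inhibition curves.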
On to `CN(Cc1ccncc1)c1c(F)c(Cl)c(-c2ccc3nc(NC(=O)[C@@H]4C[C@@H]4F)cn3c2)c2cn[nH]c12` [Example 353, (1S,2S)-N-(6-(5-chloro-6-fluoro-7-(methyl(pyridin-4-ylmethyl)amino)-1H-indazol-4-yl)imidazo[1,2-a]pyridin-2-yl)-2-fluorocyclopropane-1-carboxamide], for which the IC50 was less than 100 nM.

Turning to `NC1CCN(c2c(F)c(Cl)c(-c3ccc4nc(NC(=O)[C@@H]5C[C@@H]5F)sc4c3)c3cn[nH]c23)CC1` [Example 83, (1S,2S)-N-(6-(7-(4-aminopiperidin-1-yl)-5-chloro-6-fluoro-1H-indazol-4-yl)benzo[d]thiazol-2-yl)-2-fluorocyclopropane-1-carboxamide], the IC50 fell in the range of 101 to 500 nM. Then `O=C(Nc1cn2cc(-c3c(C(F)F)c(F)cc4[nH]ncc34)ccc2n1)[C@@H]1C[C@@H]1F` [Example 253, (1S,2S)-N-(6-(5-(difluoromethyl)-6-fluoro-1H-indazol-4-yl)imidazo[1,2-a]pyridin-2-yl)-2-fluorocyclopropane-1-carboxamide], with less than 100 nM; and `Cc1c(F)cc2[nH]ncc2c1-c1ccc2nc(NC(=O)[C@@H]3C[C@@H]3F)sc2c1CCc1ccncc1` [Example 65, (1S,2S)-2-fluoro-N-(6-(6-fluoro-5-methyl-1H-indazol-4-yl)-7-(2-(pyridin-4-yl)ethyl)benzo[d]thiazol-2-yl)cyclopropane-1-carboxamide], with less than 100 nM; and `CN(C)C(=O)CN(C)c1c(F)c(Cl)c(-c2ccc3nc(NC(=O)[C@@H]4C[C@@H]4F)sc3c2)c2cn[nH]c12` [Example 100, (1S,2S)-N-(6-(5-chloro-7-((2-(dimethylamino)-2-oxoethyl)(methyl)amino)-6-fluoro-1H-indazol-4-yl)benzo[d]thiazol-2-yl)-2-fluorocyclopropane-1-carboxamide], with less than 100 nM. Then `O=C(Nc1cn2cc(-c3c(C(F)(F)F)ccc4[nH]ncc34)ccc2n1)C1CC1` [Example 226, N-(6-(5-(trifluoromethyl)-1H-indazol-4-yl)imidazo[1,2-a]pyridin-2-yl)cyclopropanecarboxamide], with less than 100 nM; and `CN(C)c1ccc2[nH]ncc2c1-c1ccn2nc(NC(=O)[C@@H]3C[C@@H]3F)cc2c1` [Example 450, (1S,2S)-N-(5-(5-(dimethylamino)-1H-indazol-4-yl)pyrazolo[1,5-a]pyridin-2-yl)-2-fluorocyclopropane-1-carboxamide], with more than 1000 nM.

`Cc1ccc2[nH]nc(N)c2c1-c1ccc2nc(NC(=O)C3CC3)sc2c1` [Example 26, N-(6-(3-amino-5-methyl-1H-indazol-4-yl)benzo[d]thiazol-2-yl)cyclopropanecarboxamide]: the IC50 is more than 1000 nM. Regarding `O=C(Nc1nc2ccc(-c3c(Cl)c(F)c(SCCO)c4[nH]ncc34)cc2s1)[C@@H]1C[C@@H]1F` [Example 79, (1S,2S)-N-(6-(5-chloro-6-fluoro-7-((2-hydroxyethyl)thio)-1H-indazol-4-yl)benzo[d]thiazol-2-yl)-2-fluorocyclopropane-1-carboxamide], the IC50 was less than 100 nM. Then `Cc1noc(-c2c(F)c(Cl)c(-c3ccc4nc(NC(=O)[C@@H]5C[C@@H]5F)cn4c3)c3cn[nH]c23)n1` [Example 364, (1S,2S)-N-(6-(5-chloro-6-fluoro-7-(3-methyl-1,2,4-oxadiazol-5-yl)-1H-indazol-4-yl)imidazo[1,2-a]pyridin-2-yl)-2-fluorocyclopropane-1-carboxamide], with less than 100 nM. For `Cc1c(F)c(C(F)(F)F)c2[nH]ncc2c1-c1ccc2nc(NC(=O)[C@@H]3C[C@@H]3F)cn2c1` [Example 263, (1S,2S)-2-fluoro-N-(6-(6-fluoro-5-methyl-7-(trifluoromethyl)-1H-indazol-4-yl)imidazo[1,2-a]pyridin-2-yl)cyclopropane-1-carboxamide], the IC50 is less than 100 nM. Take `O=C(Nc1cc2cc(-c3c(C(F)F)c(F)cc4[nH]ncc34)ccn2n1)[C@@H]1C[C@@H]1F` [Example 468, (1S,2S)-N-(5-(5-(difluoromethyl)-6-fluoro-1H-indazol-4-yl)pyrazolo[1,5-a]pyridin-2-yl)-2-fluorocyclopropane-1-carboxamide]: the IC50 is less than 100 nM.

As for `O=C(Nc1nc2ccc(-c3c(-c4cccs4)ccc4[nH]ncc34)cc2s1)C1CC1` [Example 13, N-(6-(5-(thiophen-2-yl)-1H-indazol-4-yl)benzo[d]thiazol-2-yl)cyclopropanecarboxamide], the IC50 is more than 1000 nM.

In the case of `CC(NC(=O)C(F)F)c1c(F)c(Cl)c(-c2ccc3nc(NC(=O)[C@@H]4C[C@@H]4F)cn3c2)c2cn[nH]c12` (stereo partly drawn) [Example 441, (1S,2S)-N-(6-(5-chloro-7-(1-(2,2-difluoroacetamido)ethyl)-6-fluoro-1H-indazol-4-yl)imidazo[1,2-a]pyridin-2-yl)-2-fluorocyclopropane-1-carboxamide], the IC50 was less than 100 nM. Consider `CSc1c(F)c(F)c2[nH]ncc2c1-c1ccn2nc(NC(=O)[C@@H]3C[C@H]3F)cc2c1` [Example 599, (1S,2R)-N-(5-(6,7-difluoro-5-(methylthio)-1H-indazol-4-yl)pyrazolo[1,5-a]pyridin-2-yl)-2-fluorocyclopropane-1-carboxamide], for which the half-maximal inhibitory concentration (IC50) is less than 100 nM. Then `CCc1c(F)cc2[nH]ncc2c1-c1ccn2nc(NC(=O)[C@@H]3C[C@@H]3F)cc2c1` [Example 466, (1S,2S)-N-(5-(5-ethyl-6-fluoro-1H-indazol-4-yl)pyrazolo[1,5-a]pyridin-2-yl)-2-fluorocyclopropane-1-carboxamide], with less than 100 nM. Then `CS(=O)(=O)c1c(F)c(Cl)c(-c2ccn3nc(NC(=O)[C@@H]4C[C@@H]4F)cc3c2)c2cn[nH]c12` [Example 486, (1S,2S)-N-(5-(5-chloro-6-fluoro-7-(methylsulfonyl)-1H-indazol-4-yl)pyrazolo[1,5-a]pyridin-2-yl)-2-fluorocyclopropane-1-carboxamide], with less than 100 nM. As to `COc1ccc2[nH]ncc2c1-c1ccn2nc(NC(=O)[C@@H]3C[C@@H]3F)cc2c1` [Example 449, (1S,2S)-2-fluoro-N-(5-(5-methoxy-1H-indazol-4-yl)pyrazolo[1,5-a]pyridin-2-yl)cyclopropane-1-carboxamide], the IC50 fell in the range of 101 to 500 nM. The figure for `CC(C)c1c(F)c(Cl)c(-c2ccc3nc(NC(=O)[C@@H]4C[C@@H]4F)cn3c2)c2cn[nH]c12` [Example 405, (1S,2S)-N-(6-(5-chloro-6-fluoro-7-isopropyl-1H-indazol-4-yl)imidazo[1,2-a]pyridin-2-yl)-2-fluorocyclopropane-1-carboxamide] is less than 100 nM; for `CC(c1c(F)c(Cl)c(-c2ccc3nc(NC(=O)[C@@H]4C[C@@H]4F)cn3c2)c2cn[nH]c12)N(C)C` (stereo partly drawn) [Example 396, (1S,2S)-N-(6-(5-chloro-7-(1-(dimethylamino)ethyl)-6-fluoro-1H-indazol-4-yl)imidazo[1,2-a]pyridin-2-yl)-2-fluorocyclopropane-1-carboxamide. Formaic acid salt] it is less than 100 nM. The figure for `CCOc1c(F)c(Cl)c(-c2ccn3nc(NC(=O)[C@@H]4C[C@@H]4F)cc3c2)c2cn[nH]c12` [Example 493, (1S,2S)-N-(5-(5-chloro-7-ethoxy-6-fluoro-1H-indazol-4-yl)pyrazolo[1,5-a]pyridin-2-yl)-2-fluorocyclopropane-1-carboxamide] is less than 100 nM; for `CCc1ccc2[nH]ncc2c1-c1ccc2nc(NC(=O)C3CC3)cn2c1` [Example 234, N-(6-(5-ethyl-1H-indazol-4-yl)imidazo[1,2-a]pyridin-2-yl)cyclopropanecarboxamide] it is more than 1000 nM. In the case of `C=C(C)c1c(F)c(Cl)c(-c2ccn3nc(NC(=O)[C@@H]4C[C@@H]4F)cc3c2)c2cn[nH]c12` [Example 639, (1S,2S)-N-(5-(5-chloro-6-fluoro-7-(prop-1-en-2-yl)-1H-indazol-4-yl)pyrazolo[1,5-a]pyridin-2-yl)-2-fluorocyclopropane-1-carboxamide], the IC50 is less than 100 nM. The figure for `C[C@H](c1c(F)c(Cl)c(-c2ccc3nc(NC(=O)[C@@H]4C[C@@H]4F)cn3c2)c2cn[nH]c12)n1ncnn1` [Example 407, (1S,2S)-N-(6-(7-((R)-1-(2H-tetrazol-2-yl)ethyl)-5-chloro-6-fluoro-1H-indazol-4-yl)imidazo[1,2-a]pyridin-2-yl)-2-fluorocyclopropane-1-carboxamide] is less than 100 nM; for `CP(C)(=O)c1c(F)c(Cl)c(-c2ccn3nc(NC(=O)[C@@H]4C[C@@H]4F)cc3c2)c2cn[nH]c12` [Example 478, (1S,2S)-N-(5-(5-chloro-7-(dimethylphosphoryl)-6-fluoro-1H-indazol-4-yl)pyrazolo[1,5-a]pyridin-2-yl)-2-fluorocyclopropane-1-carboxamide] it is 501 to 1000 nM. Then `Nc1c(F)c(Cl)c(-c2ccc3nc(NC(=O)[C@@H]4C[C@@H]4F)sc3c2)c2cn[nH]c12` [Example 68, (1S,2S)-N-(6-(7-amino-5-chloro-6-fluoro-1H-indazol-4-yl)benzo[d]thiazol-2-yl)-2-fluorocyclopropane-1-carboxamide], with less than 100 nM; and `CSc1c(F)c(C)c(-c2ccc3nc(NC(=O)[C@@H]4C[C@@H]4F)sc3c2)c2cn[nH]c12` [Example 64, (1S,2S)-2-fluoro-N-(6-(6-fluoro-5-methyl-7-(methylthio)-1H-indazol-4-yl)benzo[d]thiazol-2-yl)cyclopropane-1-carboxamide], with less than 100 nM; and `CS(=O)(=O)c1c(F)c(Cl)c(-c2ccc3nc(NC(=O)[C@@H]4C[C@@H]4F)sc3c2)c2cn[nH]c12` [Example 119, (1S,2S)-N-(6-(5-chloro-6-fluoro-7-(methylsulfonyl)-1H-indazol-4-yl)benzo[d]thiazol-2-yl)-2-fluorocyclopropane-1-carboxamide], with 101 to 500 nM. As for `Cc1ccc2[nH]ncc2c1-c1ccc2nc(NC(=O)C3CC3(F)F)sc2c1` (centres unmarked) [Example 5, 2,2-difluoro-N-(6-(5-methyl-1H-indazol-4-yl)benzo[d]thiazol-2-yl)cyclopropane-1-carboxamide], the IC50 fell in the range of 101 to 500 nM.

The values are drawn from patent US11649255B2, “Indazoles as hematopoietic progenitor kinase 1 (HPK1) inhibitors and methods using same” (1st Biotherapeutics, Inc., priority 2020, dated 2023).
